Test results from PMC12508576, “Implementing a trilineage differentiation in the ReproTracker assay for improved teratogenicity assessment” (Frontiers in Toxicology, 2025).
Where two headings read alike, the source gives them in different places.

Tests used:
[1] = test system: hiPSCs differentiating into cardiomyocyte-like cells; test: ReproTracker cardiomyocyte differentiation assay
Procedure: (§1) Prior to differentiation, the cells were harvested and dissociated into single cells using Gibco™ TrypLE™ Select (ThermoFisher Scientific; Bleiswijk, Netherlands) for 5 min at 37 °C. Cells were seeded in Matrigel™-coated 24-well plates (ThermoFisher Scientific) in mTeSR™1 containing RevitaCell™ Supplement (ThermoFisher Scientific). […] The cells were cultured in this medium until D3. From D3 until the end of the differentiation protocol (D13) (one-step protocol), cells were cultured in N2B27 medium without ROCK inhibitor or LDN193189. In the case of the replating protocol, cells were replated at D7 and grown in the same medium until day 13. At the end of the differentiation, morphology of the cells was assessed using an Operetta CLS (Revvity) instrument. The expected morphology for each of the lineages, to ensure data acceptance and correct differentiations, is further described in Section 2.9 of the methods section. The trilineage differentiation was replicated in 96-well plates (ThermoFisher Scientific and Revvity Phenoplate) using the same differentiation protocols with an adapted number of cells for the seeding. And termination at D14.
(§2) Cells were harvested, and total RNA was isolated using the Maxwell® RSC simply RNA Cells Kit (cat. no.: #AS1390; Promega) on a Maxwell automated purification instrument (Maxwell RSC 48; Promega). […] Each individual primer was paired with its corresponding fluorophore and quencher and adjusted accordingly depending on gene abundance. Primer and probe sequences are described in Supplementary Table S1.
(§3) Data acceptance was based on the appropriate expression of the assessed biomarker genes in the differentiated populations, at appropriate times during differentiation. Failure to observe the expected temporal expression of key, lineage-specific biomarkers, during the cell fate choices associated with each differentiation protocol, would result in the experiment being invalidated.
(§4) To follow morphological changes throughout the hepatocyte and neural differentiation protocol, brightfield images of the cells were acquired after each medium refresh using an iRiS digital cell imaging microscope (Logos Biosystems) or an Operetta CLS (Revvity) instrument. Images were scored based on visual assessment. Cardiac contractability of cardiomyocytes was evaluated visually using an iRiS digital cell imaging microscope (Logos Biosystems).
(§5) Morphologically, cardiomyocytes are expected to group in fiber-like 3D structures that distribute throughout the entire plate. Aside from morphology, an additional criterion for cardiomyocyte differentiation in each experimental setup is for the contracting mature cardiomyocyte cultures exposed to solvent controls, to reach 75%. […] Neural rosettes are recognized by well-defined cell boundaries and multi-layered cultures. Functional/morphological assessment was completed independently from biomarker data analyses. Morphology scores were confirmed by a second person. Failure to observe the anticipated cell morphology/functionality throughout differentiation would result in invalidation of the experiment. Disruption in the morphology of cardiomyocytes is described as a lack of 3D-fibre-like structures in the cultures as well as a clear lack of contractions. Morphologically aberrant hepatocytes are characterized by a lack of polygonal structures with smaller cytoplasm that in the control cultures and the formation of dark cell-dense structures, commonly indicative of clumps of dead cells with big empty spaces between cell colonies.

[2] = test system: hiPSCs differentiating into hepatocyte-like cells; test: ReproTracker hepatocyte differentiation assay
Procedure: as §1, §2, §3, §4, §5

[3] = test system: hiPSCs differentiating into neural rosette-like cells
Procedure: as §1, §2, §3, §4, §5

[4] = cited from earlier work
undifferentiated hiPSCs = test: Concentration-range selection and cytotoxicity assessment (AlamarBlue); details: lowest concentration that induced a maximum of 20% cytotoxicity in hiPSCs, 7 days
Procedure: In short, hiPSCs were exposed to 20 consecutive concentrations of the test compounds using 1 mM or the maximum soluble concentration as the top concentration. Test compounds were added to the medium prior to the refreshes at D0 and D3. Cytotoxicity was estimated at D7; upon completion of the experiments, cells were incubated with resazurin solution (0.01 mg/mL in PBS) and measured absorbance (excitation 530 nm and emission 590 nm). Results were normalized against vehicle controls (0.1% v/v DMSO).
All compounds were tested at five consecutive concentrations in two-fold dilution steps. The top concentration was determined as the lowest concentration that induced a maximum of 20% cytotoxicity in the concentration range finding experiments. Compounds were then diluted 2-fold using serial dilutions.
Data acceptance for dose-range finding experiments was based on the response to positive and negative assay controls, and compound solubility and cytotoxicity. […] Concentrations of compound(s) inducing cytotoxicity and therefore reducing cell survival below 80% were excluded from further testing in differentiation assays.
Thus, to determine cytotoxicity of the test compounds, undifferentiated hiPSCs were exposed to 20 consecutive concentrations at 2-fold dilutions for 7 days. The lowest concentration that induced a maximum of 20% cytotoxicity in the concentration range finding experiment was applied as top concentration for the differentiation experiments.

[5] = test system: hiPSCs trilineage differentiation (cardiomyocytes, hepatocytes, neural rosette-like cells); test: ReproTracker trilineage differentiation, overall teratogenicity prediction; details: lowest tested concentration with significant decrease of at least one biomarker, trilineage assay; 'N.d. up to x' given as > x
Source text: (§6) In ReproTracker, teratogenicity prediction of test compounds is based on a Weight of Evidence (WoE) approach, which considers both the significant decrease in biomarker expression and the morphological/functional changes following exposure to test compounds throughout differentiation assays.
(§7) This threshold, for any given biomarker, is defined as the average minus one time the standard deviation (SD) of the biomarker expression levels in solvent-exposed control cultures throughout the experiment. Reduced expression of the selected biomarkers below the set threshold in a concentration-dependent manner, upon exposure to a minimum of 2 consecutive non-cytotoxic concentrations would be considered significant (noted as +). A decrease in expression below the threshold without a clear dose-response would lead to an equivocal classification (noted as (+)). An increase in expression or a lack of response would be considered negative (noted as -). Disruption of morphology/functionality of the cultures upon compound exposure at the two highest tested concentrations in all biological replicates is considered as a morphological disruption (noted as +). Absence of significant effects results in a negative score (noted as -).
(§8) For each differentiation assay, the expression of two biomarkers and a morphological/functional read-out are considered. In the hepatocyte and cardiomyocyte differentiation, FOXA2 and BMP4 are considered germ-layer-specific biomarkers, while AFP and MYH6 are considered cell-specific biomarkers, respectively. When applying the WoE approach, the cell-specific biomarkers in hepatocyte and cardiomyocyte differentiation are given higher weight compared to the germ-layer specific biomarkers and morphology/functionality. For the neural differentiation, both PAX6 and NESTIN are given equal weight as they are considered cell-specific markers. In this case, both biomarkers are given higher weight than the morphological read-out.
(§9) Every measurement/observation is assigned a score (positive, negative, or equivocal). […] In the ReproTracker assay, a compound is identified as a teratogen if it receives a positive score in at least one of the trilineage differentiation assays (cardiomyocyte, hepatocyte, or neural differentiation). […] If neither biomarker expression levels nor morphology/functionality are affected in any of the differentiation assays, the response is considered negative.

[6] = test system: hiPSCs trilineage differentiation (cardiomyocytes, hepatocytes, neural rosette-like cells)
Source text: as §6, §7, §8, §9

[7] = test system: hiPSCs differentiating into cardiomyocyte-like cells; details: lineage call; footnote b: previously published data; ref Jamalpoor et al., 2022; cited from earlier work
[8] = test system: hiPSCs differentiating into hepatocyte-like cells; details: cited from earlier work
[9] = read-out: Human therapeutic cmax, Table 1 (R3 I (2021), Schulz et al. (2020) and others)
[10] = lineage call, footnote b: previously published data, ref Jamalpoor et al., 2022
[11] = lineage call (positive/equivocal/negative)

| SMILES | ReproTracker results Cardiomyocyte-like cells [1] | ReproTracker results Hepatocyte-like cells [2] | ReproTracker results Neural rosette-like cells [3] | Cmax [4, 9] [nM] | ReproTracker results LOAEL [5] | LOAEL compared with respective human therapeutic Cmax ([6]; human) | ReproTracker results LOAEL ([6]; human) | ReproTracker results Cardiomyocyte-like cells [7] | ReproTracker results Hepatocyte-like cells [8, 10] | other results |
| --- | --- | --- | --- | --- | --- | --- | --- | --- | --- | --- |
| O=c1[nH]cc(F)c(=O)[nH]1 [5-Fluorouracil] | Negative | Negative | Negative | 400 to 2300 | N.d. up to 1.3 µM | – | – | – | – | top concentration for the differentiation experiments (undifferentiated hiPSCs): 1 µM |
| Nc1ccn([C@@H]2O[C@H](CO)[C@@H](O)[C@@H]2O)c(=O)n1 [Cytarabine] | Positive | Negative | Positive | 200 to 2100 | – | equal to or below | – | – | – | ReproTracker results LOAEL [6]: Positive |
| CC1=C(/C=C/C(C)=C/C=C/C(C)=C\C(=O)O)C(C)(C)CCC1 [Isotretinoin] | Positive | Positive | Positive | 4 to 8 | – | equal to or below | ≤0.0041 µM | – | – | – |
| CC(O)CO (stereo not drawn) [1,2-propylene glycol] | – | – | Negative | 300 to 3100 | N.d. up to 1000 µM | – | – | Negative | Negative | – |
| CC1(C)S[C@@H]2[C@H](NC(=O)[C@H](N)c3ccc(O)cc3)C(=O)N2[C@H]1C(=O)O [Amoxicillin] | – | – | Negative | 1400 to 41000 | – | – | – | Negative | – | – |
| CCCCCCCCc1ccc(CCC(N)(CO)CO)cc1 [Fingolimod] | – | – | Negative | 3 to 50 | – | higher | ≤0.25 µM | Positive | Positive | – |
| N[C@@H](CC(=O)N1CCn2c(nnc2C(F)(F)F)C1)Cc1cc(F)c(F)cc1F [Sitagliptin] | – | – | Negative | 100 to 900 | N.d. up to 1000 µM | – | – | Negative | Negative | – |
| Cc1nc(Nc2ncc(C(=O)Nc3c(C)cccc3Cl)s2)cc(N2CCN(CCO)CC2)n1 [Dasatinib] | Positive | Negative | Positive | 70 | – | equal to or below | 0.00003 to 0.00013 µM | – | – | – |
| CN(Cc1cnc2nc(N)nc(N)c2n1)c1ccc(C(=O)N[C@@H](CCC(=O)O)C(=O)O)cc1 [Methotrexate] | Negative | Negative | Negative | 20 to 1100 | – | equal to or below | N.d. up to 0.122 µM | – | – | top concentration for the differentiation experiments (undifferentiated hiPSCs): 0.1 µM |
| CC(=O)CC(c1ccccc1)c1c(O)c2ccccc2oc1=O (stereo not drawn) [Warfarin] | – | – | – | – | 62.5 to 250 µM | – | – | – | – | ReproTracker results Neural rosette-like cells [3, 11]: Negative; ReproTracker results Hepatocyte-like cells [8]: Positive; Cmax ([4]; human, in vivo): 3200 to 9700 nM |
| Cn1cc[nH]c1=S [Methimazole] | – | – | Positive | 4400 to 20200 | – | – | – | Positive | – | – |
| Nc1nc2ncc(CNc3ccc(C(=O)N[C@@H](CCC(=O)O)C(=O)O)cc3)nc2c(=O)[nH]1 [Folic acid] | – | – | Negative | 2 to 10 | N.d. up to 1.95 µM | – | – | – | Negative | – |
| CCN(CC)CCNC(=O)c1cc(Cl)c(N)cc1OC [Metoclopramide] | – | – | Negative | 30 to 500 | N.d. up to 62.5 µM | – | – | Negative | Negative | – |
| NS(=O)(=O)c1cc2c(cc1Cl)NCNS2(=O)=O [Hydrochlorothiazide] | – | – | Negative | 100 to 200 | – | – | – | Positive | Positive | – |
| NC(=O)NO [Hydroxyurea] | Negative | Positive | Positive | 263000 | ≤2.0 µM | equal to or below | – | – | – | – |
| N#C[C@@H]1CCCN1C(=O)CNC12CC3CC(CC(O)(C3)C1)C2 [Vildagliptin] | Negative | – | Positive | 600 to 1000 | – | – | 125 µM | – | – | ReproTracker results Hepatocyte-like cells [2, 11]: Negative |
| Cc1ncc(C[n+]2csc(CCO)c2C)c(N)n1 [Thiamine] | – | – | Negative | 400 | N.d. up to 1000 µM | – | – | Negative | Negative | – |
| COc1cc(C)c(/C=C/C(C)=C/C=C/C(C)=C/C(=O)O)c(C)c1C [Acitretin] | – | – | – | 30 to 900 | ≤0.2 µM | equal to or below | – | – | – | ReproTracker results Cardiomyocyte-like cells [1, 11]: Positive; ReproTracker results Hepatocyte-like cells [2, 11]: Positive; ReproTracker results Neural rosette-like cells [3, 11]: Positive |
| C[C@@H]1C[C@H]2[C@@H]3CCC4=CC(=O)C=C[C@]4(C)[C@@]3(F)[C@@H](O)C[C@]2(C)[C@@]1(O)C(=O)CO [Dexamethasone] | Negative | Negative | Positive | 100 to 700 | – | – | 1.95 µM | – | – | – |
| COc1ccccc1Oc1c(NS(=O)(=O)c2ccc(C(C)(C)C)cc2)nc(-c2ncccn2)nc1OCCO [Bosentan] | Positive | Equivocal | Negative | 1300 to 2900 | – | – | 15.6 µM | – | – | – |
| NC(=O)c1ncn([C@@H]2O[C@H](CO)[C@@H](O)[C@H]2O)n1 [Ribavirin] | Negative | Negative | Positive | 3200 | – | equal to or below | ≤1 µM | – | – | – |
